Test results published in the supplement of paper PMC11208160.

Test: recombinant UMI read abundance after kanamycin selection (control-corrected) (log10(CPM+1)); higher = more efficient recombination; extreme values may be limits of the assay; sequences stand for … in AGTGCAGAGAAAATCGGCCAGTTTTCTCTGCCTGCAGTCCGCATGCCGTGGGACCCCTTGGGTTCTAACCTGTTGCCTAGATTTATGCAGCGGACTGCCTTTCTCCCAAAGTGATAAACCGG…AGGTTGGTTTCACT; site = the 11-nt donor
Procedure, shortened: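 After plating on IPTG (0.07 mM) plus kanamycin, or unselected, in two replicates, recombinant UMIs were PCR-amplified across the donor–target junction and sequenced. The cells were Escherichia coli co-electroporated with a UMI-tagged donor and donor-binding-loop pair library and a target plasmid with a fixed target and T7-inducible IS621 bridge recombinase. Values are log10(CPM+1), with CPM averaged over replicates and scaled by control-derived factors.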
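Further: IS621 bridge recombinase in Escherichia coli cells against a fixed T5 target plasmid.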

| Sequence | recombinant UMI read abundance (log10) |
| --- | --- |
| TTAGTCTCATGGACCGGTTTTCCCGGTAATCCGTATTTGAC (site TTAGTCTCTGT) | 3.02 |
| TTATCTGCATGGACCGGTTTTCCCGGTAATCCGTATTTGTG (site TTAACTGCTCA) | 0.00525 |
| TTATCTGCATGGACCGGTTTTCCCGGTAATCCGTATTTGTG (site TTACCTGCTCA) | 0.0587 |
| TTATCTGCATGGACCGGTTTTCCCGGTAATCCGTATTTGTG (site TTAGCTGCTCA) | 0.00464 |
| TTATCTGCATGGACCGGTTTTCCCGGTAATCCGTATTTGTG (site TTATCTGCTCA) | 1.73 |
| TTATGGTCATGGACCGGTTTTCCCGGTAATCCGTATTTGGC (site TTATGGTCTGC) | 1.88 |
| TTATGTACATGGACCGGTTTTCCCGGTAATCCGTATTTGGG (site TTATGTACTCC) | 0.0157 |
| TTATTGTCATGGACCGGTTTTCCCGGTAATCCGTATTTGCA (site TTATTGTCTTG) | 2.35 |
| TTCAAGTCATGGACCGGTTTTCCCGGTAATCCGTATTTGTA (site TTCAAGTCTTA) | 0.621 |
| TTCACGGCATGGACCGGTTTTCCCGGTAATCCGTATTTGTC (site TTCACGGCTGA) | 0.624 |
| TTCAGTCCATGGACCGGTTTTCCCGGTAATCCGTATTTGAT (site TTCAGTCCTAT) | 0 |
| TTCATTACATGGACCGGTTTTCCCGGTAATCCGTATTTGAT (site TTCATTACTAT) | 0 |
| TTCCAAGCATGGACCGGTTTTCCCGGTAATCCGTATTTGAG (site ATCCAAGCTCT) | 0 |
| TTCCAAGCATGGACCGGTTTTCCCGGTAATCCGTATTTGAG (site CTCCAAGCTCT) | 0.00912 |
| TTCCAAGCATGGACCGGTTTTCCCGGTAATCCGTATTTGAG (site GTCCAAGCTCT) | 0.0126 |
| TTCCAAGCATGGACCGGTTTTCCCGGTAATCCGTATTTGAG (site TTCCAAGCTCT) | 0.0285 |
| TTCCAGCCATGGACCGGTTTTCCCGGTAATCCGTATTTGTG (site TTCCAGCCTCA) | 0.0201 |
| TTCCCTACATGGACCGGTTTTCCCGGTAATCCGTATTTGAG (site ATCCCTACTCT) | 0 |
| TTCCCTACATGGACCGGTTTTCCCGGTAATCCGTATTTGAG (site CTCCCTACTCT) | 0.0509 |
| TTCCCTACATGGACCGGTTTTCCCGGTAATCCGTATTTGAG (site GTCCCTACTCT) | 0.0155 |
| TTCCCTACATGGACCGGTTTTCCCGGTAATCCGTATTTGAG (site TTCCCTACTCT) | 0.00443 |
| TTCGACCCATGGACCGGTTTTCCCGGTAATCCGTATTTGAG (site TTCGACCCTCT) | 0.00989 |
| TTCGAGACATGGACCGGTTTTCCCGGTAATCCGTATTTGAC (site TTCGAGACTGT) | 1.53 |
| TTCGAGGCATGGACCGGTTTTCCCGGTAATCCGTATTTGAT (site TTCGAGGCTAT) | 0.482 |
| TTCGCACCATGGACCGGTTTTCCCGGTAATCCGTATTTGGT (site TTCGCACCTAC) | 0.00499 |

| Sequence | recombinant UMI read abundance (log10) |
| --- | --- |
| TTCGCTGCATGGACCGGTTTTCCCGGTAATCCGTATTTGTA (site TTCGCTGCTTA) | 0.369 |
| TTCTACGCATGGACCGGTTTTCCCGGTAATCCGTATTTGTT (site TTCTACGCTAA) | 0.603 |
| TTCTAGGCATGGACCGGTTTTCCCGGTAATCCGTATTTGCG (site TTCTAGGCTCG) | 0.0116 |
| TTCTTCACATGGACCGGTTTTCCCGGTAATCCGTATTTGTC (site TTCTTCACTGA) | 0 |
| TTGAACGCATGGACCGGTTTTCCCGGTAATCCGTATTTGAC (site TTGAACGCTGT) | 0.899 |
| TTGACTACATGGACCGGTTTTCCCGGTAATCCGTATTTGCT (site TTGACTACTAG) | 1.09 |
| TTGATTACATGGACCGGTTTTCCCGGTAATCCGTATTTGGC (site TTGATTACTGC) | 0 |
| TTGATTCCATGGACCGGTTTTCCCGGTAATCCGTATTTGAC (site TTGATTCCTGT) | 0.35 |
| TTGCAAGCATGGACCGGTTTTCCCGGTAATCCGTATTTGCT (site TTGCAAGCTAG) | 0 |
| TTGCTACCATGGACCGGTTTTCCCGGTAATCCGTATTTGCT (site ATGCTACCTAG) | 0 |
| TTGCTACCATGGACCGGTTTTCCCGGTAATCCGTATTTGCT (site CTGCTACCTAG) | 0.00337 |
| TTGCTACCATGGACCGGTTTTCCCGGTAATCCGTATTTGCT (site GTGCTACCTAG) | 0 |
| TTGCTACCATGGACCGGTTTTCCCGGTAATCCGTATTTGCT (site TTGCTACCTAG) | 0 |
| TTGGCAACATGGACCGGTTTTCCCGGTAATCCGTATTTGAT (site TTGGCAACTAT) | 0.238 |
| TTGGCGCCATGGACCGGTTTTCCCGGTAATCCGTATTTGAG (site TTGGCGCCTCT) | 0.00946 |
| TTGGTAACATGGACCGGTTTTCCCGGTAATCCGTATTTGAC (site TTGGTAACTGT) | 2.33 |
| TTGGTATCATGGACCGGTTTTCCCGGTAATCCGTATTTGTG (site TTGGTATCTCA) | 1.82 |
| TTGGTGGCATGGACCGGTTTTCCCGGTAATCCGTATTTGTC (site TTGGTGGCTGA) | 1.5 |
| TTGTACGCATGGACCGGTTTTCCCGGTAATCCGTATTTGCA (site TTGTACGCTTG) | 1.8 |
| TTGTAGGCATGGACCGGTTTTCCCGGTAATCCGTATTTGGC (site ATGTAGGCTGC) | 0 |
| TTGTAGGCATGGACCGGTTTTCCCGGTAATCCGTATTTGGC (site CTGTAGGCTGC) | 1.59 |
| TTGTAGGCATGGACCGGTTTTCCCGGTAATCCGTATTTGGC (site GTGTAGGCTGC) | 0 |
| TTGTAGGCATGGACCGGTTTTCCCGGTAATCCGTATTTGGC (site TTGTAGGCTGC) | 1.76 |
| TTGTCACCATGGACCGGTTTTCCCGGTAATCCGTATTTGTG (site TTGTCACCTCA) | 0.0196 |
| TTGTCGACATGGACCGGTTTTCCCGGTAATCCGTATTTGAC (site TTGTCGACTGT) | 0.302 |

| Sequence | recombinant UMI read abundance (log10) |
| --- | --- |
| TTGTGGCCATGGACCGGTTTTCCCGGTAATCCGTATTTGTG (site TTGTGGCCTCA) | 0.0156 |
| TTGTGTACATGGACCGGTTTTCCCGGTAATCCGTATTTGCA (site TTGTGTACTTG) | 0.756 |
| TTTAATCCATGGACCGGTTTTCCCGGTAATCCGTATTTGAT (site TTTAATCCTAT) | 0.157 |
| TTTAGGGCATGGACCGGTTTTCCCGGTAATCCGTATTTGAC (site TTTAGGGCTGT) | 1.53 |
| TTTATTTCATGGACCGGTTTTCCCGGTAATCCGTATTTGAG (site TTTATTTCTCT) | 0.00225 |
| TTTCCGGCATGGACCGGTTTTCCCGGTAATCCGTATTTGTA (site TTTCCGGCTTA) | 0.262 |
| TTTCGATCATGGACCGGTTTTCCCGGTAATCCGTATTTGGT (site TTTCGATCTAC) | 0.00229 |
| TTTCTGCCATGGACCGGTTTTCCCGGTAATCCGTATTTGAA (site TTTCTGCCTTT) | 0.00894 |
| TTTCTGCCATGGACCGGTTTTCCCGGTAATCCGTATTTGCG (site TTTCTGCCTCG) | 0.0153 |
| TTTGAGGCATGGACCGGTTTTCCCGGTAATCCGTATTTGCT (site TTTGAGGCTAG) | 1.31 |
| TTTGAGGCATGGACCGGTTTTCCCGGTAATCCGTATTTGCT (site TTTGCGGCTAG) | 0 |
| TTTGAGGCATGGACCGGTTTTCCCGGTAATCCGTATTTGCT (site TTTGGGGCTAG) | 0.458 |
| TTTGAGGCATGGACCGGTTTTCCCGGTAATCCGTATTTGCT (site TTTGTGGCTAG) | 0.0143 |
| TTTGCGACATGGACCGGTTTTCCCGGTAATCCGTATTTGCT (site TTTGCGACTAG) | 0.529 |
| TTTGCGACATGGACCGGTTTTCCCGGTAATCCGTATTTGCT (site TTTGCGCCTAG) | 0.00919 |
| TTTGCGACATGGACCGGTTTTCCCGGTAATCCGTATTTGCT (site TTTGCGGCTAG) | 0.145 |
| TTTGCGACATGGACCGGTTTTCCCGGTAATCCGTATTTGCT (site TTTGCGTCTAG) | 0 |
| TTTGCGGCATGGACCGGTTTTCCCGGTAATCCGTATTTGGT (site TTTGCGGCTAA) | 0.0207 |
| TTTGCGGCATGGACCGGTTTTCCCGGTAATCCGTATTTGGT (site TTTGCGGCTAC) | 0.0146 |
| TTTGCGGCATGGACCGGTTTTCCCGGTAATCCGTATTTGGT (site TTTGCGGCTAG) | 0.0123 |
| TTTGCGGCATGGACCGGTTTTCCCGGTAATCCGTATTTGGT (site TTTGCGGCTAT) | 0.144 |
| TTTGCGGCATGGACCGGTTTTCCCGGTAATCCGTATTTGTT (site TTTGCGGCTAA) | 0.223 |
| TTTGCGGCATGGACCGGTTTTCCCGGTAATCCGTATTTGTT (site TTTGCGGCTAC) | 0.0157 |
| TTTGCGGCATGGACCGGTTTTCCCGGTAATCCGTATTTGTT (site TTTGCGGCTAG) | 0.0139 |
| TTTGCGGCATGGACCGGTTTTCCCGGTAATCCGTATTTGTT (site TTTGCGGCTAT) | 0.00523 |
